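The compound was tested at five concentrations on cells cultured in 96-well plates, with a 48-hour exposure period. Abbreviation: GI50, concentration required for 50% inhibition of growth. At the TGI there is no net growth.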
Legend:
Assay in all cases: DTP human tumour cell line panel, 48 h
786-0 renal = test system: 786-0 renal
A498 renal = test system: A498 renal
A549 NSCLC = test system: A549 NSCLC
ACHN renal = test system: ACHN renal
BT-549 breast = test system: BT-549 breast
CCRF-CEM leukemia = test system: CCRF-CEM leukemia
COLO 205 colon = test system: COLO 205 colon
DU-145 prostate = test system: DU-145 prostate
EKVX NSCLC = test system: EKVX NSCLC
HCC-2998 colon = test system: HCC-2998 colon
HCT-116 colon = test system: HCT-116 colon
HCT-15 colon = test system: HCT-15 colon
HL-60(TB) leukemia = test system: HL-60(TB) leukemia
HOP-62 NSCLC = test system: HOP-62 NSCLC
HOP-92 NSCLC = test system: HOP-92 NSCLC
HS 578T breast = test system: HS 578T breast
HT29 colon = test system: HT29 colon
IGROV1 ovarian = test system: IGROV1 ovarian
K-562 leukemia = test system: K-562 leukemia
KM12 colon = test system: KM12 colon
LOX IMVI melanoma = test system: LOX IMVI melanoma
M14 melanoma = test system: M14 melanoma
MALME-3M melanoma = test system: MALME-3M melanoma
MCF7 breast = test system: MCF7 breast
MDA-MB-231 breast = test system: MDA-MB-231 breast
MDA-MB-435 = test system: MDA-MB-435
MOLT-4 leukemia = test system: MOLT-4 leukemia
NCI-H226 lung = test system: NCI-H226 lung
NCI-H23 lung = test system: NCI-H23 lung
NCI-H460 lung = test system: NCI-H460 lung
NCI-H522 lung = test system: NCI-H522 lung
NCI/ADR-RES ovarian = test system: NCI/ADR-RES ovarian
OVCAR-4 ovarian = test system: OVCAR-4 ovarian
OVCAR-5 ovarian = test system: OVCAR-5 ovarian
OVCAR-8 ovarian = test system: OVCAR-8 ovarian
PC-3 prostate = test system: PC-3 prostate
RPMI-8226 leukemia = test system: RPMI-8226 leukemia
RXF 393 renal = test system: RXF 393 renal
SF-268 CNS = test system: SF-268 CNS
SF-295 CNS = test system: SF-295 CNS
SF-539 CNS = test system: SF-539 CNS
SK-MEL-2 melanoma = test system: SK-MEL-2 melanoma
SK-MEL-28 melanoma = test system: SK-MEL-28 melanoma
SK-MEL-5 melanoma = test system: SK-MEL-5 melanoma
SK-OV-3 ovarian = test system: SK-OV-3 ovarian
SN12C renal = test system: SN12C renal
SNB-19 CNS = test system: SNB-19 CNS
SNB-75 CNS = test system: SNB-75 CNS
SR leukemia = test system: SR leukemia
SW-620 colon = test system: SW-620 colon
T-47D breast = test system: T-47D breast
TK-10 renal = test system: TK-10 renal
U251 CNS = test system: U251 CNS
UACC-257 melanoma = test system: UACC-257 melanoma
UACC-62 melanoma = test system: UACC-62 melanoma
UO-31 renal = test system: UO-31 renal

Oc1ccc(CSc2nnc(-c3ccncc3)o2)c2cccnc12
GI50 (786-0 renal): 3.81 µM
TGI (786-0 renal): 70.2 µM
GI50 (A498 renal): 2.64 µM
TGI (A498 renal): 9.52 µM
GI50 (A549 NSCLC): 0.767 µM
TGI (A549 NSCLC): > 100 µM
GI50 (ACHN renal): 2.28 µM
TGI (ACHN renal): 8.31 µM
GI50 (BT-549 breast): 1.71 µM
TGI (BT-549 breast): > 100 µM
GI50 (CCRF-CEM leukemia): 2.53 µM
TGI (CCRF-CEM leukemia): > 100 µM
GI50 (COLO 205 colon): 4.32 µM
TGI (COLO 205 colon): > 100 µM
GI50 (DU-145 prostate): 0.779 µM
TGI (DU-145 prostate): > 100 µM
GI50 (EKVX NSCLC): 2.74 µM
TGI (EKVX NSCLC): > 100 µM
GI50 (HCC-2998 colon): 3.38 µM
TGI (HCC-2998 colon): > 100 µM
GI50 (HCT-116 colon): 0.68 µM
TGI (HCT-116 colon): > 100 µM
GI50 (HCT-15 colon): 2.74 µM
TGI (HCT-15 colon): > 100 µM
GI50 (HL-60(TB) leukemia): 2.9 µM
TGI (HL-60(TB) leukemia): 50.7 µM
GI50 (HOP-62 NSCLC): 2.37 µM
TGI (HOP-62 NSCLC): > 100 µM
GI50 (HOP-92 NSCLC): 0.412 µM
TGI (HOP-92 NSCLC): 2.73 µM
GI50 (HS 578T breast): 0.751 µM
TGI (HS 578T breast): 58.7 µM
GI50 (HT29 colon): 3.46 µM
TGI (HT29 colon): > 100 µM
GI50 (IGROV1 ovarian): 3.33 µM
TGI (IGROV1 ovarian): > 100 µM
GI50 (K-562 leukemia): 0.622 µM
TGI (K-562 leukemia): > 100 µM
GI50 (KM12 colon): 3.9 µM
TGI (KM12 colon): > 100 µM
GI50 (LOX IMVI melanoma): 0.864 µM
TGI (LOX IMVI melanoma): > 100 µM
GI50 (M14 melanoma): 2.11 µM
TGI (M14 melanoma): > 100 µM
GI50 (MALME-3M melanoma): 2.03 µM
TGI (MALME-3M melanoma): 6.88 µM
GI50 (MCF7 breast): 0.403 µM
TGI (MCF7 breast): > 100 µM
GI50 (MDA-MB-231 breast): 1.89 µM
TGI (MDA-MB-231 breast): 4.87 µM
GI50 (MDA-MB-435): 0.613 µM
TGI (MDA-MB-435): > 100 µM
GI50 (MOLT-4 leukemia): 3.71 µM
TGI (MOLT-4 leukemia): > 100 µM
GI50 (NCI-H226 lung): 3.6 µM
TGI (NCI-H226 lung): > 100 µM
GI50 (NCI-H23 lung): 0.951 µM
TGI (NCI-H23 lung): > 100 µM
GI50 (NCI-H460 lung): 0.397 µM
TGI (NCI-H460 lung): > 100 µM
GI50 (NCI-H522 lung): 0.558 µM
TGI (NCI-H522 lung): > 100 µM
GI50 (NCI/ADR-RES ovarian): 3.95 µM
TGI (NCI/ADR-RES ovarian): > 100 µM
GI50 (OVCAR-4 ovarian): 3.19 µM
TGI (OVCAR-4 ovarian): > 100 µM
GI50 (OVCAR-5 ovarian): 3.54 µM
TGI (OVCAR-5 ovarian): > 100 µM
GI50 (OVCAR-8 ovarian): 0.62 µM
TGI (OVCAR-8 ovarian): > 100 µM
GI50 (PC-3 prostate): 0.626 µM
TGI (PC-3 prostate): 9.34 µM
GI50 (RPMI-8226 leukemia): 0.524 µM
TGI (RPMI-8226 leukemia): 4.02 µM
GI50 (RXF 393 renal): 2.41 µM
TGI (RXF 393 renal): > 100 µM
GI50 (SF-268 CNS): 2.18 µM
TGI (SF-268 CNS): > 100 µM
GI50 (SF-295 CNS): 1.75 µM
TGI (SF-295 CNS): 8.32 µM
GI50 (SF-539 CNS): 2.18 µM
TGI (SF-539 CNS): > 100 µM
GI50 (SK-MEL-2 melanoma): 2.11 µM
TGI (SK-MEL-2 melanoma): 7.66 µM
GI50 (SK-MEL-28 melanoma): 4.37 µM
TGI (SK-MEL-28 melanoma): > 100 µM
GI50 (SK-MEL-5 melanoma): 1.03 µM
TGI (SK-MEL-5 melanoma): 2.63 µM
GI50 (SK-OV-3 ovarian): 3.11 µM
TGI (SK-OV-3 ovarian): 9.81 µM
GI50 (SN12C renal): 0.619 µM
TGI (SN12C renal): 6.13 µM
GI50 (SNB-19 CNS): 1.47 µM
TGI (SNB-19 CNS): > 100 µM
GI50 (SNB-75 CNS): 1.52 µM
TGI (SNB-75 CNS): 25.5 µM
GI50 (SR leukemia): 2.21 µM
TGI (SR leukemia): > 100 µM
GI50 (SW-620 colon): 1.37 µM
TGI (SW-620 colon): > 100 µM
GI50 (T-47D breast): 3.08 µM
TGI (T-47D breast): > 100 µM
GI50 (TK-10 renal): 3.36 µM
TGI (TK-10 renal): > 100 µM
GI50 (U251 CNS): 0.494 µM
TGI (U251 CNS): > 100 µM
GI50 (UACC-257 melanoma): 2.61 µM
TGI (UACC-257 melanoma): 8.38 µM
GI50 (UACC-62 melanoma): 2.87 µM
TGI (UACC-62 melanoma): > 100 µM
GI50 (UO-31 renal): 1.83 µM
TGI (UO-31 renal): > 100 µM

— PubChem BioAssay (NCI)
